According to patent publication US5580881A, “1,2,3,5,6,7,8,8a-Octahydro-5,5,8a-trimethyl- (8aβ)-6-isoquinolineamine derivatives, preparation method therefor and therapeutical use thereof” (Fournier Industrie Et Sante, priority 1992, dated 1996):
“And” between values parts separate entries of the source, which are not always exact repeats. Equal entries are not always repeated. Where two headings read alike, the source gives them in different places.

Tests used:
[1] = system: biosynthesis of hepatic cholesterol (hepatic epoxysqualene cyclase); experiment: Influence on the biosynthesis of hepatic cholesterol in vivo: incorporation of radioactivity in the C27 sterols; conditions: oral (gavage), male OF1 mice, relative to control (vehicle) group, 14C-mevalonolactone at 1 h, sacrifice at 2 h
Protocol: The influence of the molecules on hepatic cholesterogenesis in vivo is tested on male OF1 mice. The animals are conditioned in reverse cycle two weeks before administration of the product.
At T=0 on the day of the experiment, the animals (3 to 6 mice/group) receive by oral administration (gavage) a suspension of the test product in the vehicle (3% gum arabic in water).
At T=1 h, the radioactive precursor (R,S-2-^14 C-mevalonolactone) in a 0.9% aqueous solution of NaCl is injected intraperitoneally [2.5 or 5 μCi/mouse (i.e. 9.25×10^4 Bq or 1.85×10^5 Bq respectively)].
At T=2 h, the animals are sacrificed by dislocation of the cervix; the livers are removed, rinsed, weighed and frozen in liquid nitrogen before being stored at -20° C.
During the conditioning period and on the day of the experiment, the animals have free access to food and drinking water.
The administration of the test product and the injection of the radioactive precursor take place in the middle of the dark period.
After thawing, the whole liver (or part of the liver) is homogenized in water at 0°-4° C. An aliquot of the homogenate is then saponified in alcoholic potassium hydroxide for 90 minutes at 80° C. The unsaponifiable lipids are then extracted with petroleum ether. The solvent is evaporated off to dryness under a stream of nitrogen and the dry residue is redissolved in a chloroform/methanol mixture (2/1). The products contained in the extract are then separated by chromatography on a thin layer of silica after migration in the system hexane/ethyl acetate (80/20).
The deposition of a standard mixture containing non-radioactive cholesterol, lanosterol, monoepoxysqualene, diepoxysqualene and squalene, together with ^14 C-cholesterol, makes it possible to determine the Rf of the compounds which serve as a reference for analysis of the radioactive profile of the unsaponifiable lipids.
The distribution of the radioactivity is analyzed with an automatic linear analyzer. The relative percentage of radioactivity in the C^27 -sterol peak of the control (vehicle) group represents 100% incorporation. Calculation of the influence is based on the ratio of the percentage of radioactivity in the C^27 -sterol peak of the treated group to that of the control group.

[2] = target: T1, epoxysqualene cyclase of the hepatic microsomes (Rattus norvegicus, UniProt P48450); experiment: Epoxysqualene cyclase inhibition: lanosterol formed from R,S-2,3-oxidosqualene by rat hepatic microsomes; type: biochemical, male Wistar rats
T1 construct: Rat hepatic microsomes are used as the enzyme source; from tissue; host or cells: liver microsomes of male Wistar rats
T1 sequence (P48450 1-733): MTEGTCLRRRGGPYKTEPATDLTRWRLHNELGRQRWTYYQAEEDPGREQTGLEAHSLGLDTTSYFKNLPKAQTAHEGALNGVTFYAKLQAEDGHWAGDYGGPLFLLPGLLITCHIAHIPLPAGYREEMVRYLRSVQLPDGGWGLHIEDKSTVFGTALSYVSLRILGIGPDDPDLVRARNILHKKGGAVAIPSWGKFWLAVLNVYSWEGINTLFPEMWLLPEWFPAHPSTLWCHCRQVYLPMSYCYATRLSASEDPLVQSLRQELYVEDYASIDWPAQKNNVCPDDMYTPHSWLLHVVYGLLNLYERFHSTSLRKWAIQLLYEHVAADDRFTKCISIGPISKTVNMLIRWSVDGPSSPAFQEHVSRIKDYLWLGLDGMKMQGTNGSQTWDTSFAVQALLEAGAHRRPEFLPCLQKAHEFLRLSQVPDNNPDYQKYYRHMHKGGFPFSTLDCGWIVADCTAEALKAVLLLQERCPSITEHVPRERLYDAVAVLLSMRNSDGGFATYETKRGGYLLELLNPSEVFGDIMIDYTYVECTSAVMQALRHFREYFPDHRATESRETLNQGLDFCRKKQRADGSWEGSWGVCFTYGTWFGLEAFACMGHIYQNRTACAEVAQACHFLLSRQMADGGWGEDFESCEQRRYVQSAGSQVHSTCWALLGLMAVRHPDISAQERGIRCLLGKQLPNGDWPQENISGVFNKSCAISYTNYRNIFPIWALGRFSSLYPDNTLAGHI
Protocol: The method consists in measuring the lanosterol formed from the R,S-2,3-oxidosqualene by the microsomal enzyme. The enzyme is prepared according to the method described by Ness G. C. (Ness G. C. et al., Biochem. J. (1986), 233,167-172).
Method of Measuring the Epoxysqualene Cyclase Activity
Rat hepatic microsomes are used as the enzyme source. The method consists in measuring the lanosterol formed from the R,S-2,3-oxidosqualene. The R,S-2,3-oxidosqualene, the test products and Tween®80, in the form of organic solutions (2-propanone or sulfinylbismethane) (25 μl ), are placed in test tubes and 400 μl of potassium phosphate buffer (0.1M, pH=7.4) are then added. The reaction is initiated by the addition of 100 μl of microsomes. For a final reaction volume of 525 μl , the mixture contains 150 μM of R,S-2,3-oxidosqualene, 0.1% of Tween®80 (to solubilize the R,S-2,3-oxidosqualene) and 250 μg of microsomal proteins. The reaction time is 60 minutes at 37° C. The reaction is stopped by the addition of 300 μl of methanolic potassium hydroxide (7%) and 20 μg of stigmasterol as an internal standard. After saponification at 80° C. for 30 minutes and stirring with a rotary stirrer, the sterols are extracted with 2 ml of hexane.
The lanosterol formed is separated from the R,S-2,3-oxidosqualene, the membrane cholesterol and the stigmasterol by gas chromatography after conversion to trimethylsilyl ethers. The derivatization of the sterols is carried out at 60° C. for 30 minutes after the addition of 25 μl of pyridine and 75 μl of the trimethylsilyl ester of 2,2,2-trifluoro-N-trimethylsilylethanimidic acid containing 1% of trimethylchlorosilane ethers.
After evaporation, the trimethylsilyl ethers are redissolved in 100 μl of hexane. An aliquot of this solution (2 μl) is chromatographed in the gas phase on an OV1 capillary column (0.32 mm, 25 m) under the following conditions: injector temperature=270° C., oven temperature=260° C., detector temperature=300° C., the carrier gas being nitrogen at a pressure of 7.10^4 Pa.
The potency of the molecules tested is expressed as the percentage inhibition of the amount of lanosterol formed for a concentration of 25.10^-6 mol of test product per liter. The results obtained with a number of compounds according to the invention are collated in Table II.

[3] = 25.10^-6 mol of test product per liter, 60 minutes at 37° C., pH=7.4, rat hepatic microsomes

Percentage inhibition of the amount of lanosterol formed [2, 3] [%]	SMILES	other results
100	CCCCCCCCCCCCN1CC=C2C(C)(C)[C@@H](N(C)C)CC[C@]2(C)C1 (relative stereo) [Example 17, N,N-Dimethyl-1,2,3,5,6,7,8,8a-octahydro-2-dodecyl-5,5,8a-trimethyl-(6β,8aβ)-6-isoquinolineamine (E)-2-butenedioate]	
66	CCCCCCCCCCCCN1CC=C2C(C)(C)[C@H](N(C)C)CC[C@]2(C)C1 (relative stereo) [Example 18, N,N-Dimethyl-1,2,3,5,6,7,8,8a-octahydro-2-dodecyl-5,5,8a-trimethyl-(6α,8aβ)-6-isoquinolineamine ethanedioate]	
89	C=CCN1CC=C2C(C)(C)[C@@H](N(C)C)CC[C@]2(C)C1 (relative stereo) [Example 20, N,N-Dimethyl-1,2,3,5,6,7,8,8a-octahydro-2-(2-propen-1-yl)-5,5,8a-trimethyl-(6β,8aβ)-6-isoquinolineamine (E)-2-butenedioate]	Percentage influence on the incorporation of radioactivity in the C27 sterols ([1]; 50 mg base/kg): -21%
100	CCCN1CC=C2C(C)(C)[C@@H](N(C)C)CC[C@]2(C)C1 (relative stereo) [Example 21, N,N-Dimethyl-1,2,3,5,6,7,8,8a-octahydro-2-propyl-5,5,8a-trimethyl-(6β,8aβ)-6-isoquinolineamine ethanedioate]	
98	CN(C)[C@H]1CC[C@]2(C)CN(CC=Cc3ccccc3)CC=C2C1(C)C (relative stereo) [Example 23, N,N-Dimethyl-1,2,3,5,6,7,8,8a-octahydro-2-(3-phenyl-2-propen-1-yl)-5,5,8a-trimethyl-(6β,8aβ)-6-isoquinolineamine 4-methylbenzenesulfonate]	
92	CN(C)[C@H]1CC[C@]2(C)CN(CC=C(c3ccccc3)c3ccccc3)CC=C2C1(C)C (relative stereo) [Example 24, N,N-Dimethyl-1,2,3,5,6,7,8,8a-octahydro-2-(3,3-diphenyl-2-propen-1-yl)-5,5,8a-trimethyl-(6β,8aβ)-6isoquinolineamine ethanedioate]	
64	CN(C)[C@H]1CC[C@]2(C)CN(CC(O)CO)CC=C2C1(C)C (stereo partly drawn) [Example 22, N,N-Dimethyl-1,2,3,5,6,7,8,8a-octahydro-2-[1-(2,3-dihydroxypropyl)]-5,5,8a-trimethyl-(6β,8aβ)-6-isoquinolineamine]	
98	CC(Cc1ccc(C(C)C)cc1)CN1CC=C2C(C)(C)[C@@H](N(C)C)CC[C@]2(C)C1 (stereo partly drawn) [Example 25, N,N-Dimethyl-1,2,3,5,6,7,8,8a-octahydro-2-[1-[2-methyl-3-[4-(1-methylethyl)phenyl]propyl]]-5,5,8a-trimethyl-(6β,8aβ)-6-isoquinolineamine (E)-2-butenedioate]	

The remaining lines, values behind:

SMILES	Percentage inhibition of the amount of lanosterol formed [2, 3] [%]	other results
C=CCN1CC=C2C(C)(C)[C@@H](NC(=O)C(F)(F)F)CC[C@]2(C)C1 (relative stereo) [Example 1, N-Trifluoroacetyl-1,2,3,5,6,7,8,8a-octahydro-2-(2-propen-1-yl)-5,5,8a-trimethyl-(6β,8aβ)-6-isoquinolineamine]		Percentage influence on the incorporation of radioactivity in the C27 sterols ([1]; 50 mg base/kg): -37%
CCCCCCCCCCCCN1CC=C2C(C)(C)[C@@H](NC)CC[C@]2(C)C1 (relative stereo) [Example 12, N-Methyl-1,2,3,5,6,7,8,8a-octahydro-2-dodecyl-5,5,8a-trimethyl-(6β,8aβ)-6-isoquinolineamine ethanedioate]	65	
C=CCN1CC=C2C(C)(C)[C@@H](NC)CC[C@]2(C)C1 (relative stereo) [Example 13, N-Methyl-1,2,3,5,6,7,8,8a-octahydro-2-(2-propen-1-yl)-5,5,8a-trimethyl-(6β,8aβ)-6-isoquinolineamine ethanedioate]		Percentage inhibition of the amount of lanosterol formed [2]: 63%
CCCCCCCCCCCCN1CC=C2C(C)(C)[C@@H](N)CC[C@]2(C)C1 (relative stereo) [Example 14, 1,2,3,5,6,7,8,8a-Octahydro-2-dodecyl-5,5,8a-trimethyl-(6β,8aβ)-6-isoquinolineamine E-2-butenedioate]	29	
C=CCN1CC=C2C(C)(C)[C@@H](NC(C)=O)CC[C@]2(C)C1 (relative stereo) [Example 16, N-Acetyl-1,2,3,5,6,7,8,8a-octahydro-2-(2-propen-1-yl)-5,5,8a-trimethyl-(6β,8aβ)-6-isoquinolineamine 4-methylbenzenesulfonate]		Percentage influence on the incorporation of radioactivity in the C27 sterols ([1]; 50 mg base/kg): -14%
CC1(C)C2=CCN(CC3CO3)C[C@@]2(C)CC[C@@H]1NC(=O)C(F)(F)F (stereo partly drawn) [Example 5, N-Trifluoroacetyl-1,2,3,5,6,7,8,8a-octahydro-2-[1-(2,3-epoxypropyl)]-5,5,8a-trimethyl-(6β,8aβ)-6-isoquinolineamine]		Percentage influence on the incorporation of radioactivity in the C27 sterols ([1]; 50 mg base/kg): -32%
CC1(C)C2=CCN(CC(O)CO)C[C@@]2(C)CC[C@@H]1NC(=O)C(F)(F)F (stereo partly drawn) [Example 6, N-Trifluoroacetyl-1,2,3,5,6,7,8,8a-octahydro-2-[1-(2,3-dihydroxypropyl)]-5,5,8a-trimethyl-(6β,8aβ)-6-isoquinolineamine E-2-butenedioate]	62	Percentage influence on the incorporation of radioactivity in the C27 sterols ([1]; 100 mg base/kg): -74% and -78%
